From patent publication US6465663B2, “O- or S-substituted tetrahydronaphthalene derivatives having retinoid and/or retinoid antagonist-like biological activity” (Allergan, Inc., priority 1996, dated 2002)

Columns and labels:
[1] = test system: ornithine decarboxylase (ODC); test: ODC assay: inhibition of TPA induction of ornithine decarboxylase activity; type: in vivo; conditions: for IC60: concentration of the test compound which causes 60% inhibition in the ODC assay
Source text: A classic measure of retinoic acid activity involves measuring the effects of retinoic acid on ornithine decarboxylase. […] That reference discloses that ornithine decarboxylase (ODC) activity increased precedent to polyamine biosynthesis. It has been established elsewhere that increases in polyamine synthesis can be correlated or associated with cellular proliferation. Thus, if ODC activity could be inhibited, cell hyperproliferation could be modulated. Although all cases for ODC activity increases are unknown, it is known that 12-0-tetradecanoylphorbol-13-acetate (TPA) induces ODC activity. Retinoic acid inhibits this induction of ODC activity by TPA.

RARβ = biological target: T1, RARβ (Homo sapiens, UniProt P10826); test: Ligand binding assay
T1 sequence (P10826 1-455): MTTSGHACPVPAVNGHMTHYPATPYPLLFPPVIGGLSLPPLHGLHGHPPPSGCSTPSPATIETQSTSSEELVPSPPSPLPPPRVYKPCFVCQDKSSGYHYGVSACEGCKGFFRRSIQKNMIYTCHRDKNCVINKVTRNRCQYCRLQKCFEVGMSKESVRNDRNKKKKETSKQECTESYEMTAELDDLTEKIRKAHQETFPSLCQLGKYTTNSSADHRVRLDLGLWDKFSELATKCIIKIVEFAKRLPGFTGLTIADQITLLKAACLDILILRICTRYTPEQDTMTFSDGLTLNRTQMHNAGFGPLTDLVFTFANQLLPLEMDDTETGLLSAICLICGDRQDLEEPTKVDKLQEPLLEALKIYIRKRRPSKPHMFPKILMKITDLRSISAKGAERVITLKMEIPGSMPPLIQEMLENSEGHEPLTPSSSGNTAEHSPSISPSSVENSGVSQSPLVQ
Source text: (§1) Other assays described below, measure the ability of the compounds of the present invention to bind to, and/or activate various retinoid receptor subtypes. When in these assays a compound binds to a given receptor subtype and activates the transcription of a reporter gene through that subtype, then the compound is considered an agonist of that receptor subtype. […] In the below described assays the ability of the compounds to bind to RARα, RARβ, RARγ, RXRα, RXRβ and RXRΓ receptors, and the ability or inability of the compounds to activate transcription of a reporter gene through these receptor subtypes can be tested.
(§2) A holoreceptor transactivation assay and a ligand binding assay which measure the antagonist/agonist like activity of the compounds of the invention, or their ability to bind to the several retinoid receptor subtypes, respectively, are described in published PCT Application No. WO WO93/11755 (particularly on pages 30-33 and 37-41) published on Jun. 24, 1993, the specification of which is also incorporated herein by reference. A description of the holoreceptor transactivation assay is also provided below.
(§3) CV1 cells (5,000 cells/well) were transfected with an RAR reporter plasmid MTV-TREp-LUC (50 ng) along with one of the RAR expression vectors (10 ng) in an automated 96-well format by the calcium phosphate procedure of Heyman et al. Cell 68, 397-406, (1992). For RXRα and RXRγ transactivation assays, an RXR-responsive reporter plasmid CRBPII-tk-LUC (50 ng) along with the appropriate RXR expression vectors (10 ng) was used substantially as described by Heyman et al. above, and Allegretto et al. J. Biol. Chem. 268, 26625-26633. For RXRβ transactivation assays, an RXR-responsive reporter plasmid CPRE-tk-LUC ([…]) along with RXRβ expression vector ([…]) was used as described in above. These reporters contain DRI elements from human CRBPII and certain DRI elements from promoter, respectively. (see Mangelsdorf et al. The Retinoids: Biology, Chemistry and Medicine, pp 319-349, Raven Press Ltd., New York and Heyman et al., cited above) (1, 8). A β-galactosidase (50 ng) expression vector was used as an internal control in the transfections to normalize for variations in transfection efficiency. The cells were transfected in triplicate for 6 hours, followed by incubation with retinoids for 36 hours, and the extracts were assayed for luciferase and β-galactosidase activities. The detailed experimental procedure for holoreceptor transactivations has been described in Heyman et al. above, and Allegretto et al. cited above. The results obtained in this assay are expressed in EC50 numbers, as they are also in the chimeric receptor transactivation assay. The Heyman et al. Cell 68, 397-406, Allegretto et al. J. Biol. Chem. 268, 26625-26633, and Mangelsdorf et al. The Retinoids: Biology, Chemistry and Medicine, pp 319-349, Raven Press Ltd., New York, are expressly incorporated herein by reference. The results of ligand binding assay are expressed in Kd numbers. (See Cheng et al. Biochemical Pharmacology Vol. 22 pp 3099-3108, expressly incorporated herein by reference.)

RARα = biological target: T2, RARα (Homo sapiens, UniProt P10276); test: Ligand binding assay
T2 sequence (P10276 1-462): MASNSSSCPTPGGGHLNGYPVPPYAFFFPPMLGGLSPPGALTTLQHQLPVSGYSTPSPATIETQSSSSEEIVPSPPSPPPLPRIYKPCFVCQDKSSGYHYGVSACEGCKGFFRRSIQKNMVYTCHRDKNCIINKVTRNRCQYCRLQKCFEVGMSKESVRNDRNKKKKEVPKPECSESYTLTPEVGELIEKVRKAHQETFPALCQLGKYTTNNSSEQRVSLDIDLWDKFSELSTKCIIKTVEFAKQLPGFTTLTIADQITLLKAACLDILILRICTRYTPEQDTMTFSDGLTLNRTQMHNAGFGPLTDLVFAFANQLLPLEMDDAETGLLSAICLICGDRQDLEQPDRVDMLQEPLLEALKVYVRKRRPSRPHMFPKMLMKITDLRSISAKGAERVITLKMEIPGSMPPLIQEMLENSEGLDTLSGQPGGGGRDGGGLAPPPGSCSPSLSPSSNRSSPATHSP
Source text: as §1, §2, §3

RARγ = biological target: T3, RARγ (Homo sapiens, UniProt P13631); test: Ligand binding assay
T3 sequence (P13631 1-454): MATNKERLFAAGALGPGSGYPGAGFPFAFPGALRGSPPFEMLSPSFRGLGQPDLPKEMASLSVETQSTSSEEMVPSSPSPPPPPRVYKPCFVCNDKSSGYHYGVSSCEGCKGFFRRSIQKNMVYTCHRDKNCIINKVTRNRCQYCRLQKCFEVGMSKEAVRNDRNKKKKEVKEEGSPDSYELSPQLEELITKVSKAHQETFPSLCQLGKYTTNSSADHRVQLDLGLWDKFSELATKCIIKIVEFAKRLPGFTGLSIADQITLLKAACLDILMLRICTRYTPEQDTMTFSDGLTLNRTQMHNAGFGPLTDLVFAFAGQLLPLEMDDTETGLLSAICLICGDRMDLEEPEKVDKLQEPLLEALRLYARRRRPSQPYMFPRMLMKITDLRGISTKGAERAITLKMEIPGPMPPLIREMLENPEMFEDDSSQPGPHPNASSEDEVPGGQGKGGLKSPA
Source text: as §1, §2, §3

IC60 [1] | Compound | further results
3.1 nmols | CCOC(=O)c1ccc(OC(=O)c2ccc3c(c2)C(OC2CCCCO2)CCC3(C)C)cc1 (single isomer, unassigned) [Compound E56a, Ethyl 4-[5,6,7,8-tetrahydro-8(R or S)-(2′(R or S)-tetrahydropyranoxy)-5,5-dimethyl-2-napthoyloxy]benzoate] | 
24.7 nmols | CCOC(=O)c1ccc(OC(=O)c2ccc3c(c2)C(=C(C)C)CCC3(C)C)cc1 [Compound E15, Ethyl 4-[{(5,5-dimethyl-8(7H-(propyliden-2-yl)-5.6-dihydronaphthalen-2-yl)}carbonyl}oxy]benzoate] | 
88.4 nmols | CCOC(=O)c1ccc(NC(=O)c2ccc3c(c2)C(=C(C)C)CCC3(C)C)cc1 [Compound E16] | 
5.3 nmols | CCOC(=O)c1ccc(NC(=O)c2ccc3c(c2)C(C(C)(C)C)=CCC3(C)C)cc1 [Compound E79, Ethyl 4-[(5 .5-dimethyl-5,6-dihydro-8-(1,1-dimethylethyl)-2-naphthalenyl)carboxamido]-benzoate] | 

Further lines, the compound ahead of its results:

Compound | IC60 [1] | further results
CCOC(=O)c1ccc(N=Nc2ccc3c(c2)C(OCOC)CCC3(C)C)cc1 (racemic) [Compound D6, (+/−) Ethyl 4-[(5,5-dimethyl-8-(methoxymethyloxy)-5,6,7,8-tetrahydronaphthalen-2-yl)azo]benzoate] | 1.9 nmols | 
COCOC1CCC(C)(C)c2ccc(N=Nc3ccc(C(=O)O)cc3)cc21 (racemic) [Compound D7, (+/−) 4-[(5,5-Dimethyl-8-(methoxymethyloxy)-5,6,7,8-tetrahydronaphthalen-2-yl)azo]benzoic Acid] |  | Kd (RARβ): 226 nM; Kd (RARα): > 1000 nM; Kd (RARγ): > 1000 nM
CCOC(=O)c1ccc(NC(=O)c2ccc3c(c2)C(OC2CCCCO2)CCC3(C)C)cc1 (single isomer, unassigned) [Compound E72b, Ethyl 4-[5,6,7,8-tetrahydro-8(R or S)-(2′(S or R)tetrahydropyranoxy)5,5-dimethylnaphthalene-2-yl)carboxamido]benzoate] | 18 nmols | 
CCOC(=O)c1ccc(/C=C/c2ccc3c(c2)C(=O)CCC3(C)C)cc1 [Compound A2, Ethyl (E)-4-[2-(5,6-dihydro-5,5-dimethyl-naphthalen-8(7H)-one-2-yl)ethenyl]-benzoate] | 27 nmols | 
CCON=C1CCC(C)(C)c2ccc(/C=C/c3ccc(C(=O)OCC)cc3)cc21 [Compound A5, Ethyl (E)-4-[2-(5,5-dimethyl-5,6,-dihydro-8(7H)-anti-(O-ethyl oxime)-naphthalen-2-yl)ethenyl]-benzoate] | 10.3 nmols | 
CCOC(=O)c1ccc(/C=C/c2ccc3c(c2)C(Sc2ccccc2)=CCC3(C)C)cc1 [Compound A16, Ethyl (E)-4-[2-(5,6-dihydro-5,5-dimethyl-8-(phenylthio)-naphthalenyl)ethenyl] benzoate] |  | IC80 ([1]; concentration of the test compound which causes 80% inhibition in the ODC assay, cell marked (IC80)): 4.3 (IC80) nmols
CCOC(=O)c1ccc(/C=C/c2ccc3c(c2)C(C2SCCCS2)CCC3(C)C)cc1 (stereo not drawn) [Compound A23, Ethyl (E)-4-[-2-(5,6,7,8-tetrahydro-5,5-dimethyl-8-(1,3-dithian-2-yl)naphthalen-2-yl)ethenyl] benzoate] | 43.7 nmols | 
CCOC(=O)c1ccc(/C=C/c2ccc3c(c2)C(=C(CC)CC)CCC3(C)C)cc1 [Compound A27, Ethyl (E)-4-[2-(7,8-dihydro-5,5-dimethyl-8(7H)-(pentyliden-3-yl)-naphthalen-2-yl)ethenyl]-benzoate] | 0.7 nmols | 
CCOC(=O)/C=C(C)/C=C/C=C(\C)c1ccc2c(c1)C(OS(=O)(=O)C(F)(F)F)=CCC2(C)C [Compound C14, Ethyl 7-[4,4-dimethyl-3,4,-dihydronaphthalen-1-trifluoromethylsulfonyloxy-7-yl]-3,7-dimethyl-hept-2(E), 4(E), 6(E)trienoate] | 4 nmols | 
CCOC(=O)/C=C(C)/C=C/C=C(\C)c1ccc2c(c1)C(c1cccs1)=CCC2(C)C [Compound C15, Ethyl 7-[4,4-dimethyl-3,4,-dihydronaphthalen-1-(2-thienyl)-7-yl]-3,7-dimethyl-hept-2(E), 4(E), 6(E)trienoate] | 14.5 nmols | 
CCON=C1CCC(C)(C)c2ccc(/C(C)=C/C=C/C(C)=C/C(=O)OCC)cc21 [Compound C22b, Ethyl 7-[4,4-dimethyl-3,4-dihydro-1(2H)-anti-(O-ethyl oxime)-naphth-7-yl]3,7-dimethyl-hepta-2(E),4(E),6(E)-trienoate] | 10 nmols | 
CCOC(=O)c1ccc(/N=N/c2ccc3c(c2)/C(=N/OC)CCC3(C)C)cc1 [Compound D3, Ethyl 4-[(8(7H)-anti-(O-methyl oxime)-5,5-dimethyl-5,6-dihydronaphthalen-2-yl)azo]benzoate] | 8.4 nmols | 
CO/N=C1\CCC(C)(C)c2ccc(N=Nc3ccc(C(=O)O)cc3)cc21 [Compound D4, 4-[(8(7H)-Anti-(O-methyl oxime)-5,5-dimethyl-5,6-dihydronaphthalen-2-yl)azo]benzoic Acid] |  | Kd (RARβ): 132 nM; Kd (RARγ): 363 nM
CCOC(=O)c1ccc(OC(=O)c2ccc3c(c2)C(S(=O)(=O)c2ccccc2)=CCC3(C)C)cc1 [Compound E24, Ethyl 4-[{(5,5-dimethyl-8-(phenylsulfonyl)-5,6dihydronaphthalen-2-yl)carbonyl}oxy]benzoate] | 8.3 nmols | 
